Data: PMC7667638 (Journal of Medicinal Chemistry, 2020)
Where two headings read alike, the source gives them in different places.

Columns and labels:
hNaV1.7 [1] = molecular target: T1, hNaV1.7 (Homo sapiens, UniProt Q15858); assay: cell-based; details: SEM
hNaV1.7 [2] = molecular target: T1, hNaV1.7; assay: cell-based; type: cell-based
hNaV1.4 [3] = molecular target: T2, hNaV1.4 (Homo sapiens, UniProt P35499); assay: cell-based; type: cell-based
hNaV1.4 [4] = molecular target: T2, hNaV1.4; assay: cell-based; details: for IC50: SEM
hNaV1.4 [5] = molecular target: T2, hNaV1.4; details: cited from earlier work
hNaV1.7 [6] = molecular target: T1, hNaV1.7; details: SEM; cited from earlier work
rNaV1.4 = details: read-out: IC50 (nM ± SEM), rat NaV1.4; cited from earlier work

T2 sequence (P35499 whole entry, looked up): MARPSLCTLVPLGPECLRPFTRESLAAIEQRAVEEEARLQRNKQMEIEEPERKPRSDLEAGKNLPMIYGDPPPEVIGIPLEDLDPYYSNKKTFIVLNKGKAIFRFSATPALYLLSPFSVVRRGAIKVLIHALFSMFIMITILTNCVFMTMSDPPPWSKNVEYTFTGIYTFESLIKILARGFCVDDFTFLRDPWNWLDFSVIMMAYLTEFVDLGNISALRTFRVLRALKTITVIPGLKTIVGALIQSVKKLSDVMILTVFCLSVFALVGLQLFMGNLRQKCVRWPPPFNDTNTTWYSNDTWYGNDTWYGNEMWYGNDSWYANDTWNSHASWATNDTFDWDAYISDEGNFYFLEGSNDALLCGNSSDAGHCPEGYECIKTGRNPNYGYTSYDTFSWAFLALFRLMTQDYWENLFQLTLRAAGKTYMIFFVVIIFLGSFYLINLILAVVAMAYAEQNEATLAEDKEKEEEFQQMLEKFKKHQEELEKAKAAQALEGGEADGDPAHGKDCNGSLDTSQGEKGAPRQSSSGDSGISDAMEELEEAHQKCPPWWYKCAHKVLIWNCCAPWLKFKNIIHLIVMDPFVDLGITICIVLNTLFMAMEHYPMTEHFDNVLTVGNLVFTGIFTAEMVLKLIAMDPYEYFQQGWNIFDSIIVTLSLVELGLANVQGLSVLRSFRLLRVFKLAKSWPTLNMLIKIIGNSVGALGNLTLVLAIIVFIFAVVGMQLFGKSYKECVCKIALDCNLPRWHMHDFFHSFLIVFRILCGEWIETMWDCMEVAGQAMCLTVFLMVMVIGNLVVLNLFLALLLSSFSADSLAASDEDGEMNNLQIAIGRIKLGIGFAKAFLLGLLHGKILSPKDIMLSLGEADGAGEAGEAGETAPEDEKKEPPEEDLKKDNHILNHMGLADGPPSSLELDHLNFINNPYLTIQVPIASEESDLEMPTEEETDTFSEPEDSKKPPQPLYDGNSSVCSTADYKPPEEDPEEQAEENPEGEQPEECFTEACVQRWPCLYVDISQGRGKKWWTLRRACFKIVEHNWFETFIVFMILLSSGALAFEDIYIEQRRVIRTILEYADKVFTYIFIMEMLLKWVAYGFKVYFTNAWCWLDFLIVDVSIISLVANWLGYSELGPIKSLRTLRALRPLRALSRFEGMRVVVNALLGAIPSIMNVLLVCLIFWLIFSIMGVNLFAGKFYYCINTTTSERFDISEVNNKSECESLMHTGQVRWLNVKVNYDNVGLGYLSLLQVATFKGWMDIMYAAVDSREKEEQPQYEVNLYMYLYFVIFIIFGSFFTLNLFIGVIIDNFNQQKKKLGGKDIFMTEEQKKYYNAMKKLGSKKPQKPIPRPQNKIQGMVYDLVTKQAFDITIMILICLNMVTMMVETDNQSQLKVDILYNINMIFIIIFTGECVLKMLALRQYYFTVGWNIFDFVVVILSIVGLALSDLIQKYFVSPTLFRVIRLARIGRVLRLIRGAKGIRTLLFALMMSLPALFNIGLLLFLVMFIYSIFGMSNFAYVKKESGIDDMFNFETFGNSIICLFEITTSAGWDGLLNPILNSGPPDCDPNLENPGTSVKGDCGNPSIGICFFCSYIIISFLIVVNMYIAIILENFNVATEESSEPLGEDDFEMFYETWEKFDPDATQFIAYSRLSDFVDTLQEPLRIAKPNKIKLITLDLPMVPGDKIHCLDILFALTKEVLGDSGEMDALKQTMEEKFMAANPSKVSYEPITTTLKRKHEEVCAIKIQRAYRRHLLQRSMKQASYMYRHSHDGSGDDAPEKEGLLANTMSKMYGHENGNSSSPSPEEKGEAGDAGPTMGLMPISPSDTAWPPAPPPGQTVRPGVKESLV
T1 sequence (Q15858 whole entry, looked up): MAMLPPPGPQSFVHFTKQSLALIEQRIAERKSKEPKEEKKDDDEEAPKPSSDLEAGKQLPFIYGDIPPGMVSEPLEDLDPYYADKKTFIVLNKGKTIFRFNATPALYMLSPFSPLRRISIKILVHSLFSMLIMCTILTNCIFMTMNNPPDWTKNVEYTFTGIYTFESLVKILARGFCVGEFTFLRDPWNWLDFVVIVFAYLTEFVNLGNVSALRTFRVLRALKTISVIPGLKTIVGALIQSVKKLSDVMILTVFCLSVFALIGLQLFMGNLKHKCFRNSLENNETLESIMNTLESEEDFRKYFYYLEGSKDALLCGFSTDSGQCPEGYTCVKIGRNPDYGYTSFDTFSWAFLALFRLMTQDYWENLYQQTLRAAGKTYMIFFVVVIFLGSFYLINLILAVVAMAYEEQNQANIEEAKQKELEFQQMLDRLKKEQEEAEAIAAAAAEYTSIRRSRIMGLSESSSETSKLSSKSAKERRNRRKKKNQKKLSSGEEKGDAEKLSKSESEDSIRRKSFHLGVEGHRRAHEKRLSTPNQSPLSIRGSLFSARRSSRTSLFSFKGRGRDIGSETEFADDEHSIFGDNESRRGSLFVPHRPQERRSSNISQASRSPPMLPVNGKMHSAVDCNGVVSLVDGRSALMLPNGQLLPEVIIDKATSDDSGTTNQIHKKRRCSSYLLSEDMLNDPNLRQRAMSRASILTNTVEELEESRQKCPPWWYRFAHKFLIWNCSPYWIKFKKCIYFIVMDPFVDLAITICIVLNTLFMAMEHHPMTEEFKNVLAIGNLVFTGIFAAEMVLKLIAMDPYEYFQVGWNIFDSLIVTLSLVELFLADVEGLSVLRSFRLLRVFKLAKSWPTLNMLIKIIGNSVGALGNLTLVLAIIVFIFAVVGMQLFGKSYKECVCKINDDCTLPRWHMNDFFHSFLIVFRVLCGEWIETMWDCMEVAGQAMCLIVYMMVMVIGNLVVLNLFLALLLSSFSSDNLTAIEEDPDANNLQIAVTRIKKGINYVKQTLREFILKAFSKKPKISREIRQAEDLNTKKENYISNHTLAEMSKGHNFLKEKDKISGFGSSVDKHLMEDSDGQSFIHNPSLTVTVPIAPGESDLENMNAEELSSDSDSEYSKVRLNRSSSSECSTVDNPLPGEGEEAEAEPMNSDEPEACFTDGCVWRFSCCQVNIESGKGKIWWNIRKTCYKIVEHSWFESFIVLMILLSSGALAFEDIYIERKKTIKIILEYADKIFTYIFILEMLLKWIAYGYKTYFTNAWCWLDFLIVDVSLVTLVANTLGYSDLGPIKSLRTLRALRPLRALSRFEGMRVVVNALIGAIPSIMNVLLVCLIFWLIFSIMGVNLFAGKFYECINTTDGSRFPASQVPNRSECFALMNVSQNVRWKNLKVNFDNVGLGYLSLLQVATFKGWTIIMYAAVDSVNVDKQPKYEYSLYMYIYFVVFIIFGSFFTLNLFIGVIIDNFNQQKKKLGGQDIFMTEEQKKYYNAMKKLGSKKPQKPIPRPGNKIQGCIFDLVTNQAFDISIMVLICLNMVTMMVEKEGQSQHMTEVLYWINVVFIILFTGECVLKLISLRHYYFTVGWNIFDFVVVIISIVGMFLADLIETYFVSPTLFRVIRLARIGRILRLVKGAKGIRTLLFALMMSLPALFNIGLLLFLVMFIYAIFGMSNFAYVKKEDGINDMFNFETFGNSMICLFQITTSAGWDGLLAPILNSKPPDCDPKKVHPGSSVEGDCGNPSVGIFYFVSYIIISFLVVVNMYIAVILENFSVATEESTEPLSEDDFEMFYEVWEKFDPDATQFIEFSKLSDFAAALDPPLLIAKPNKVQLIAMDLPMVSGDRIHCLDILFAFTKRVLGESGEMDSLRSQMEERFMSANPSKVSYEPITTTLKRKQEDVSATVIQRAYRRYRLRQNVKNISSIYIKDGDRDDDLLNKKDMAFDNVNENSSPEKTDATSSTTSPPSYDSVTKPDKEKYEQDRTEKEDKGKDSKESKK

[N-]=[N+]=NCCCC[C@H](N)C(=O)N[C@H]1CSSC[C@@H]2NC(=O)[C@H](CCCNC(=N)N)NC(=O)[C@H](CO)NC(=O)[C@H](Cc3c[nH]cn3)NC(=O)[C@H](CC(=O)O)NC(=O)[C@H](CCCNC(=N)N)NC(=O)[C@@H]3CSSC[C@H](NC1=O)C(=O)N[C@@H](CC(N)=O)C(=O)N[C@@H](CSSC[C@@H](C(N)=O)NC2=O)C(=O)N[C@@H](CO)C(=O)N[C@@H](CO)C(=O)N[C@@H](CCCCN)C(=O)N[C@@H](Cc1c[nH]c2ccccc12)C(=O)N3 [AzK-KIIIA]
IC50 (hNaV1.7 [1]): 96 ± 41 nM
recovery of sodium current at end of washout, hNaV1.7 (hNaV1.7 [2]): 12.6 ± 1.2%
koff (hNaV1.7 [2]; read-out: koff, hNaV1.7, SEM): 0.000392 s⁻¹
kon (hNaV1.7 [2]; read-out: kon, hNaV1.7): 16200 M⁻¹ s⁻¹
recovery of sodium current at end of washout, hNaV1.4 (hNaV1.4 [3]): ~40%
koff (hNaV1.4 [3]; read-out: koff, hNaV1.4, SEM): 0.00118 s⁻¹
kon (hNaV1.4 [3]; read-out: kon, hNaV1.4): 39700 M⁻¹ s⁻¹
IC50 relative to 1, hNaV1.4 (hNaV1.4 [4]): 3.6× ↑
IC50 (hNaV1.4 [4]): 32 ± 10 nM

N=C(N)NCCC[C@@H]1NC(=O)[C@H](CO)NC(=O)[C@H](Cc2c[nH]cn2)NC(=O)[C@H](CC(=O)O)NC(=O)[C@H](CCCNC(=N)N)NC(=O)[C@@H]2CSSC[C@@H]3NC(=O)[C@@H](NC(=O)[C@@H](N)CCCCn4cc(C[C@H](N)C(=O)NCCOCCOCCOCCOCCC(=O)NCCOCCOCCOCCOCCC(=O)NCCOCCOCCOCCOCCC(=O)NCCOCCOCCOCCOCCC(=O)NN)nn4)CSSC[C@H](NC1=O)C(=O)N[C@H](C(N)=O)CSSC[C@H](NC(=O)[C@H](CC(N)=O)NC3=O)C(=O)N[C@@H](CO)C(=O)N[C@@H](CO)C(=O)N[C@@H](CCCCN)C(=O)N[C@@H](Cc1c[nH]c3ccccc13)C(=O)N2 [[K-KIIIA]-[PEG80]]
IC50 relative to 1, hNaV1.4 (hNaV1.4 [4]): 16.0× ↑
IC50 (hNaV1.4 [4]): 144 ± 46 nM

N=C(N)NCCC[C@@H]1NC(=O)[C@H](CO)NC(=O)[C@H](Cc2c[nH]cn2)NC(=O)[C@H](CC(=O)O)NC(=O)[C@H](CCCNC(=N)N)NC(=O)[C@@H]2CSSC[C@@H]3NC(=O)[C@@H](N)CSSC[C@@H](C(N)=O)NC(=O)[C@H](CSSC[C@H](NC(=O)[C@H](CC(N)=O)NC3=O)C(=O)N[C@@H](CO)C(=O)N[C@@H](CO)C(=O)N[C@@H](CCCCN)C(=O)N[C@@H](Cc3c[nH]c4ccccc34)C(=O)N2)NC1=O [µ-KIIIA-ox-p2]
IC50 (hNaV1.7 [1]): 154 ± 15 nM

N=C(N)NCCC[C@@H]1NC(=O)[C@H](CO)NC(=O)[C@H](Cc2c[nH]cn2)NC(=O)[C@H](CC(=O)O)NC(=O)[C@H](CCCNC(=N)N)NC(=O)[C@@H]2CSSC[C@@H]3NC(=O)[C@@H](N)CSSC[C@H](NC1=O)C(=O)N[C@H](C(N)=O)CSSC[C@H](NC(=O)[C@H](CC(N)=O)NC3=O)C(=O)N[C@@H](CO)C(=O)N[C@@H](CO)C(=O)N[C@@H](CCCCN)C(=O)N[C@@H](Cc1c[nH]c3ccccc13)C(=O)N2 [μ-KIIIA, μ-conotoxin KIIIA]
IC50 (hNaV1.7 [1]): 132 ± 37 nM

E1G, E4G, Y33W huwentoxin-IV [m3-HwTx-IV]
IC50 (hNaV1.4 [5]; SEM): 369 ± 196 nM
IC50 (hNaV1.4 [5]; read-out: IC50 (nM ± SEM), hNaV1.4): 370 nM
IC50 (hNaV1.7 [6]): 0.4 ± 0.1 nM

μ-theraphotoxin-Hs2a [HwTx-IV]
IC50 (rNaV1.4): 400 nM
